Assay results taken from patent US11976062B2, “Benzisoxazole compound” (OSAKA UNIVERSITY, priority 2018, dated 2024).

Tested on: cardiac fibrosis induced by pressure overload
Assay: not given
Conditions: mice, NPL 1 and 2; cited from earlier work

Compound | suppression of cardiac fibrosis induced by pressure overload
CCOC(=O)c1cnn(-c2ccc(NC(=O)C(Cl)=C(Cl)Cl)cc2)c1C(F)(F)F [Pyr3] | potently suppresses cardiac fibrosis induced by pressure overload

Biological target: T1, TRPC6 channel (Homo sapiens, UniProt Q9Y210)
T1 construct: expressed in transfected cells; host or cells: HEK293
T1 sequence (Q9Y210 1-931): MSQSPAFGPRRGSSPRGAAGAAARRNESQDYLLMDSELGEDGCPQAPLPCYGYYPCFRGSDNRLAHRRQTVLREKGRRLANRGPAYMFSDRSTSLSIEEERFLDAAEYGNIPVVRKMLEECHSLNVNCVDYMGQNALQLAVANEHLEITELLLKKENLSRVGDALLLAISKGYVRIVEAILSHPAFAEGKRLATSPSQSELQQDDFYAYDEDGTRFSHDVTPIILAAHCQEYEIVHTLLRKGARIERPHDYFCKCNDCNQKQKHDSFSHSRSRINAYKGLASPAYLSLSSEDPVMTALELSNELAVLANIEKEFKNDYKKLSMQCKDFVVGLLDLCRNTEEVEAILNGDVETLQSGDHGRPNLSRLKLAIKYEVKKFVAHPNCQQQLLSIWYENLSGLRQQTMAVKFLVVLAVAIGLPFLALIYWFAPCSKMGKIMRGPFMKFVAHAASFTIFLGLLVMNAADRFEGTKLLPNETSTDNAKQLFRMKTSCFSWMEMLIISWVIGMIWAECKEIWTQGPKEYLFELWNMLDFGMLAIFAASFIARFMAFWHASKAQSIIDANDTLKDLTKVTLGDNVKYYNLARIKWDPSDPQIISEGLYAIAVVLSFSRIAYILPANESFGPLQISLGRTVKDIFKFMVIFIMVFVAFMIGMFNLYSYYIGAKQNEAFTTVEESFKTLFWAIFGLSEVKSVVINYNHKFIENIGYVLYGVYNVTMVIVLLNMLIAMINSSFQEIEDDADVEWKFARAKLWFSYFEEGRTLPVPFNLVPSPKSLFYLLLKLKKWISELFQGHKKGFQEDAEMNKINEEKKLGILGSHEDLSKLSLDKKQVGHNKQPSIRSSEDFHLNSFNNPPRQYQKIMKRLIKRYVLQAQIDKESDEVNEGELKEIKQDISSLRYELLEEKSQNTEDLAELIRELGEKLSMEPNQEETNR
Assay: Calcium assay using HEK293 cells transiently expressing TRPC6 channel, ATP as activating reagent
Format: cell-based
Conditions: 10 μM test compound
Protocol: In the same manner as in Test Example 2, the calcium ion concentration was measured, except that 10 μM of Pyr 4 and 10 μM of compound 202(E), 061, or 071 (test compound) were used, and ATP was used as a TRPC channel activating reagent instead of carbachol, thereby determining the amount of increase in calcium ions. FIG. 4 illustrates the results.

Compound | suppression of TRPC6 channel activation (decrease in calcium ion influx, FIG. 4)
Clc1cccnc1N1CCN(c2noc3cccc(Cl)c23)CC1 [Compound 071, 4-chloro-3-(4-(3-chloropyridin-2-yl)piperazin-1-yl)benzo[d]isoxazole] | activation of the TRPC6 channel was suppressed
O/N=C(\c1cccc(Cl)c1Cl)N1CCN(c2ccccc2Cl)CC1 [Compound 202(E), (E)-(4-(2-chlorophenyl)piperazin-1-yl)(2,3-dichlorophenyl)methanone oxime] | activation of the TRPC6 channel was suppressed
Clc1ccccc1N1CCN(c2noc3cccc(Cl)c23)CC1 [Compound 061, 4-chloro-3-(4-(2-chlorophenyl)piperazin-1-yl)benzo[d]isoxazole] | activation of the TRPC6 channel was suppressed

Biological target: T1, TRPC6 channel
Assay: Calcium assay using HEK293 cells transiently expressing TRPC6 channel, carbachol activation (Fura-2)
Format: cell-based
Conditions: 10 μM test compound, carbachol
Protocol: A TRPC6 gene was introduced into HEK293 cells (cells derived from human fetal kidney) by lipofection, and the TRPC6 channel was expressed on the cell membrane. Specifically, the plasmid DNA of TRPC6 (pCI-neo; Promega Corporation) was introduced into HEK293 cells using a lipofection reagent, and then cultured at 37° C. for 24 to 48 hours to express the TRPC6 channel on the cell membrane. In the same manner, HEK293 cells into which the TRPC3 gene was introduced were cultured, and the TRPC3 channel was expressed on the cell membrane.
The cultured cells were peeled off with trypsin and seeded on a cover glass again, followed by culturing the cells at 37° C. for 3 hours again. A Fura-2 AM calcium indicator was added to the medium, and the cells were cultured at 37° C. for 30 minutes to allow the cells to incorporate the indicator. For the extracellular solution, a Ca^2+-containing solution and a Ca^2+-free solution were prepared. • Ca^2+-containing solution: 2 mM CaCl2, 132 mM NaCl, 4 mM KCl, 1 mM MgCl2, 5 mM glucose, 5 mM HEPES (pH 7.4) • Ca^2+-free solution: 132 mM NaCl, 4 mM KCl, 1 mM MgCl2, 5 mM glucose, 5 mM HEPES (pH 7.4)
After the cells were added to the Ca^2+-containing solution, the following operation was performed while the fluorescence intensity (510 nm) of Fura-2 was measured at room temperature with an ARGUS CA-20 (Hamamatsu Photonics K.K.) over time. • 0 minutes: TRPC3-expressing cells or TRPC6-expressing cells are placed in a measurement chamber that contains the Ca^2+-containing solution. • After 30 seconds: The Ca^2+-containing solution is replaced with the Ca^2+-free solution. • After 1 minute: A predetermined amount of a test compound is added to the Ca^2+-free solution. • After 3 minutes: Carbachol (100 μM) is added to the Ca^2+-free solution. • After 7 minutes: The Ca^2+-free solution is replaced with the Ca^2+-containing solution that contains a test compound and carbachol […]. • After 15 minutes: Measurement is ended.
Compound 011 was used as the test compound, and the amount of the test compound added was 0.01, 0.1, 0.5, 1.0, 5.0, 10, or 50 μM. For the control, 0.1% DMSO was used in place of the test compound. Carbachol (cch) is a TRPC-channel-activating reagent. Applying carbachol to cells opens the TRPC channel and allows a large amount of Ca^2+ in the extracellular solution to flow into the cells. Fura-2 AM has high cell membrane permeability due to the presence of an AM group (acetoxymethyl group), and is thus easily incorporated into the cells. The AM group is hydrolyzed in the cells to become Fura-2. Thus, Fura-2 can form a chelate with Ca^2+ and is also unlikely to leak out of the cells due to the loss of the AM group.
In the same manner as in Test Example 1, the maximum calcium ion concentration was measured after 7 minutes from the start of measurement (i.e., after replacement with the Ca^2+-containing solution) by using TRPC6-expressing cells prepared in the same manner as in Test Example 1, except that 10 μM of Pyr 4 and 10 μM of compound 011, 031, 041, or 191 (test compound) were used. The average value of calcium ion concentrations up to 30 seconds after the start of measurement (the initial value of calcium ion concentration) was subtracted from the maximum calcium ion concentration, and the calculated value was determined to be the amount of increase in calcium ions. FIG. 3 illustrates the results.
The calcium ion concentration was measured in the same manner as in Test Example 2, except that 10 μM of compound 011, 361, 362(E), 362(Z), 371, 372(Z), 381, or 401 (test compound) was used, and Pyr 4 was not used, thereby determining the amount of increase in calcium ions. Table 2 illustrates the amount of increase in calcium ions for each test compound relative to the amount of increase in calcium ions in the control (DMSO) taken as 100%.

Compound | suppression of TRPC6 channel activation (decrease in calcium ion influx, FIG. 3)
C[C@H]1CN(c2ncc(C(=O)O)cc2Cl)CCN1c1noc2cccc(C(F)(F)F)c12 [Compound 031, (S)-5-chloro-6-(3-methyl-4-(4-(trifluoromethyl)benzo[d]isoxazol-3-yl)piperazin-1-yl) nicotinic acid] | activation of the TRPC6 channel was suppressed
C[C@@H]1CN(c2ncc(C(=O)O)cc2Cl)CCN1c1noc2cccc(C(F)(F)F)c12 [Compound 041, (R)-5-chloro-6-(3-methyl-4-(4-(trifluoromethyl)benzo[d]isoxazol-3-yl)piperazin-1-yl) nicotinic acid] | activation of the TRPC6 channel was suppressed
O=C(O)c1cnc(N2CC3CCC(C2)N3c2noc3cccc(C(F)(F)F)c23)c(Cl)c1 [Compound 191, 5-chloro-6-(8-(4-(trifluoromethyl)benzo[d]isoxazol-3-yl)-3,8-diazabicyclo[3,2,1]octan-3-yl)nicotinic acid] | activation of the TRPC6 channel was suppressed

Same assay, conditions: 10 μM test compound, carbachol, TRPC6-expressing cells

amount of increase in calcium ions relative to control (DMSO) taken as 100% [%] | Compound
72 | FC(F)(F)c1cccc2onc(N3CC=C(c4ccccc4Cl)CC3)c12 [Compound 361, 3-(4-(2-chlorophenyl)-3,6-dihydropyridin-1(2H)-yl)-4-(trifluoromethyl)benzo[d]isoxazole]
65 | O/N=C(\c1c(F)cccc1C(F)(F)F)N1CC=C(c2ccccc2Cl)CC1 [Compound 362(E), E-(4-(2-chlorophenyl)-3,6-dihydropyridin-1(2H)-yl)(2-fluoro-6-(trifluoromethyl)phenyl)methanone oxime]
61 | CCOC(=O)c1cnc(N2CCN(c3noc4cccc(C(F)(F)F)c34)CC2=O)c(Cl)c1 [Compound 371, ethyl 5-chloro-6-(2-oxo-4-(4-(trifluoromethyl)benzo[d]isoxazol-3-yl)piperazin-1-yl) nicotinate]
54 | O/N=C(/c1c(F)cccc1C(F)(F)F)N1CC=C(c2ccccc2Cl)CC1 [Compound 362(Z), (Z)-(4-(2-chlorophenyl)-3,6-dihydropyridin-1(2H)-yl)(2-fluoro-6-(trifluoromethyl)phenyl)methanone oxime]
57 | O=C(O)c1cnc(N2CCN(c3noc4cccc(C(F)(F)F)c34)CC2=O)c(Cl)c1 [Compound 381, 5-chloro-6-(2-oxo-4-(4-(trifluoromethyl)benzo[d]isoxazol-3-yl)piperazin-1-yl)nicotinic acid]
72 | CCOC(=O)c1cnc(N2CCN(/C(=N\O)c3c(F)cccc3C(F)(F)F)CC2=O)c(Cl)c1 [Compound 372(Z), ethyl (Z)-5-chloro-6-(4-((2-fluoro-6-(trifluoromethyl)phenyl)(hydroxyimino)methyl)-2-oxopiperazin-1-yl)nicotinate]
19 | O=C(O)c1ccc(C2=CCN(c3noc4cccc(C(F)(F)F)c34)CC2)c(Cl)c1 [Compound 401, 3-chloro-4-(1-(4-(trifluoromethyl)benzo[d]isoxazol-3-yl)-1,2,3,6-tetrahydropyridin-4-yl)benzoic acid]
